Reference: patent publication US4740233A, “Substituted 1,2,4-triazolo[1,5-a]-pyrimidine-2-sulfonamides and compositions and methods of controlling undesired vegetation and suppressing the nitrification of ammonium nitrogen in soil” (The Dow Chemical Company, priority 1986, dated 1988)

Experiments:
[1] = test system: cotton; assay: Preemergent control of plant species; format: in vivo, Gossypium spp.; conditions: Gossypium hirsutum, pre-emergence, 336 h; 0.25 lb/acre; read-out: percent preemergent control
How it was run: (§1)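 Seeds planted in good agricultural soil beds; active ingredients then applied to the bed surface as aqueous emulsion at listed rates. Beds kept two weeks in greenhouse with watering. Control scored against water-treated beds.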

[2] = test system: rape; assay: Preemergent control of plant species; format: in vivo, Brassica napus; conditions: Brassica napus, pre-emergence, 336 h; 0.25 lb/acre; read-out: percent preemergent control
How it was run: as §1

[3] = test system: soybean; assay: Preemergent control of plant species; format: in vivo, Glycine max.; conditions: Glycine max, pre-emergence, 336 h; 0.25 lb/acre; read-out: percent preemergent control
How it was run: as §1

[4] = test system: sugar beet; assay: Preemergent control of plant species; format: in vivo, Beta saccharifera; conditions: Beta vulgaris, pre-emergence, 336 h; 0.25 lb/acre; read-out: percent preemergent control
How it was run: as §1

[5] = test system: jimsonweed; assay: Preemergent control of plant species; format: in vivo, Datura stramonium; conditions: Datura stramonium, pre-emergence, 336 h; 0.25 lb/acre; read-out: percent preemergent control
How it was run: as §1

[6] = test system: annual morning glory; assay: Preemergent control of plant species; format: in vivo, Ipomoea spp.; conditions: Ipomoea, pre-emergence, 336 h; 0.25 lb/acre; read-out: percent preemergent control
How it was run: as §1

[7] = test system: pigweed; assay: Preemergent control of plant species; format: in vivo, Amaranthus spp.; conditions: Amaranthus retroflexus, pre-emergence, 336 h; 0.25 lb/acre; read-out: percent preemergent control
Experimental: (§2) The seeds of various species of plants were planted in beds of good agricultural soil in a greenhouse. A number of compositions of the present invention, generally in the nature of an aqueous emulsion, were applied at rates listed in the table so as to deposit a predetermined amount of active ingredients uniformly throughout the surface of the bed. Another seed bed was treated only with water to serve as a control. After treatment the seed beds were maintained for two weeks under greenhouse conditions conducive for good plant growth and watered as necessary. Control refers to the reduction in growth compared to the observed results of the same untreated species.

[8] = test system: velvetleaf; assay: Preemergent control of plant species; format: in vivo, Abutilon theophrasti; conditions: Abutilon theophrasti, pre-emergence, 336 h; 0.25 lb/acre; read-out: percent preemergent control
How it was run: as §1

[9] = test system: corn; assay: Preemergent control of plant species; format: in vivo, Zea mays; conditions: Zea mays, pre-emergence, 336 h; 0.25 lb/acre; read-out: percent preemergent control
How it was run: as §1

[10] = test system: rice; assay: Preemergent control of plant species; format: in vivo, Oryza sativa; conditions: Oryza sativa, pre-emergence, 336 h; 0.25 lb/acre; read-out: percent preemergent control
How it was run: as §1

[11] = test system: sorghum; assay: Preemergent control of plant species; format: in vivo, Sorghum vulgare; conditions: Sorghum, pre-emergence, 336 h; 0.25 lb/acre; read-out: percent preemergent control
How it was run: as §1

[12] = test system: wheat; assay: Preemergent control of plant species; format: in vivo, Triticum aestivum; conditions: Triticum aestivum, pre-emergence, 336 h; 0.25 lb/acre; read-out: percent preemergent control
How it was run: as §1

[13] = test system: barnyardgrass; assay: Preemergent control of plant species; format: in vivo, Echinochloa crusgalli; conditions: Echinochloa crus-galli, pre-emergence, 336 h; 0.25 lb/acre; read-out: percent preemergent control
How it was run: as §1

[14] = test system: crabgrass; assay: Preemergent control of plant species; format: in vivo, Digitaria spp.; conditions: Digitaria sanguinalis, pre-emergence, 336 h; 0.25 lb/acre; read-out: percent preemergent control
Experimental: as §2

[15] = test system: johnson grass; assay: Preemergent control of plant species; format: in vivo, Sorghum halepense; conditions: Sorghum halepense, pre-emergence, 336 h; 0.25 lb/acre; read-out: percent preemergent control
How it was run: as §1

[16] = test system: wild oats; assay: Preemergent control of plant species; format: in vivo; conditions: Avena fatua, pre-emergence, 336 h; 0.25 lb/acre; read-out: percent preemergent control
How it was run: as §1

[17] = test system: yellow foxtail; assay: Preemergent control of plant species; format: in vivo, Setaria lutescens; conditions: Setaria, pre-emergence, 336 h; 0.25 lb/acre; read-out: percent preemergent control
How it was run: as §1

[18] = test system: yellow nutsedge; assay: Preemergent control of plant species; format: in vivo, Cyperus esculentus; conditions: Cyperus, pre-emergence, 336 h; 0.25 lb/acre; read-out: percent preemergent control
How it was run: as §1

[19] = test system: rice; assay: Control of aquatic plant species (paddy water); format: in vivo, Oryza sativa; conditions: Oryza sativa, 216 h, nine days, read-out: Percent control
How it was run: (§3)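 Percent control is scored nine days after treatment. Plants go into about 2 inches of soil at the 1-2 inch stage and are flooded to about 1 inch, then test compound in acetone concentrate is injected into the standing water at a volume chosen for the desired concentration.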

[20] = test system: barnyardgrass; assay: Control of aquatic plant species (paddy water); format: in vivo, Echinochloa crusgalli; conditions: Echinochloa crus-galli, 216 h, nine days, read-out: Percent control
Experimental: In testing for such utility, the plant species to be tested were transplanted into 16 oz. containers into about 2 inches of soil when they were in the 1-2 inch stage and then flooded to a depth of about 1 inch. An acetone concentrate of the chemical to be tested was then injected into the paddy water, the volume injected being varied as desired to provide the desired concentration. Percent control was evaluated nine days after application.

[21] = test system: sprangletop; assay: Control of aquatic plant species (paddy water); format: in vivo, Leptochloa filiformis; conditions: Leptochloa filiformis, 216 h, nine days, read-out: Percent control
How it was run: as §3

[22] = test system: yellow nutsedge; assay: Control of aquatic plant species (paddy water); format: in vivo, Cyperus esculentus; conditions: Cyperus, 216 h, nine days, read-out: Percent control
How it was run: as §3

[23] = test system: nitrification of ammonium nitrogen; assay: Suppression of nitrification of ammonium nitrogen in soil; conditions: 27° C.
How it was run: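 Value is % NH4-N remaining after a two-week, 27° C incubation of treated soil held at 1/3 bar tension moisture. Nitrate was measured with an ion-selective electrode after extraction with ammonium sulfate solution and 10 min shaking.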

SMILES: Cc1cc(C)n2nc(S(=O)(=O)Nc3c(Cl)cccc3Br)nc2n1 [Compound 39]
- plant injury at 280.212 g/ha [1]: 95%
- plant injury at 280.212 g/ha [2]: 95%
- plant injury at 280.212 g/ha [3]: 95%
- plant injury at 280.212 g/ha [4]: 97%
- pest or weed control at 280.212 g/ha [5]: 100%
- pest or weed control at 280.212 g/ha [6]: 90%
- pest or weed control at 280.212 g/ha [7]: 100%
- pest or weed control at 280.212 g/ha [8]: 95%
- plant injury at 280.212 g/ha [9]: 95%
- plant injury at 280.212 g/ha [10]: 97%
- plant injury at 280.212 g/ha [11]: 95%
- plant injury at 280.212 g/ha [12]: 0%
- pest or weed control at 280.212 g/ha [13]: 97%
- pest or weed control at 280.212 g/ha [14]: 70%
- pest or weed control at 280.212 g/ha [15]: 95%
- pest or weed control at 280.212 g/ha [16]: 0%
- pest or weed control at 280.212 g/ha [17]: 97%
- pest or weed control at 280.212 g/ha [18]: 100%
- pest or weed control at 31 g/ha ([19]; 0.031 Kg/Ha): 0%
- pest or weed control at 250 g/ha ([19]; 0.25 Kg/Ha): 75%
- pest or weed control at 31 g/ha ([20]; 0.031 Kg/Ha): 20%
- pest or weed control at 250 g/ha ([20]; 0.25 Kg/Ha): 99%
- pest or weed control at 31 g/ha ([21]; 0.031 Kg/Ha): 0%
- pest or weed control at 250 g/ha ([21]; 0.25 Kg/Ha): 75%
- pest or weed control at 31 g/ha ([22]; 0.031 Kg/Ha): 85%
- pest or weed control at 250 g/ha ([22]; 0.25 Kg/Ha): 99%
- % NH4-N Remaining After 2 Weeks Incubation ([23]; 0.01 ppm): 49%
- % NH4-N Remaining After 2 Weeks Incubation ([23]; 0.1 ppm): 78%
- % NH4-N Remaining After 2 Weeks Incubation ([23]; 1 ppm): 91%
- % NH4-N Remaining After 2 Weeks Incubation ([23]; 10 ppm): 100%

SMILES: Cc1cc(C)n2nc(S(=O)(=O)Nc3ccccc3Br)nc2n1 [Compound 41]
- plant injury at 280.212 g/ha [1]: 40%
- plant injury at 280.212 g/ha [2]: 80%
- plant injury at 280.212 g/ha [3]: 25%
- plant injury at 280.212 g/ha [4]: 80%
- pest or weed control at 280.212 g/ha [5]: 0%
- pest or weed control at 280.212 g/ha [6]: 10%
- pest or weed control at 280.212 g/ha [7]: 0%
- pest or weed control at 280.212 g/ha [8]: 10%
- plant injury at 280.212 g/ha [9]: 0%
- plant injury at 280.212 g/ha [10]: 0%
- plant injury at 280.212 g/ha [11]: 20%
- plant injury at 280.212 g/ha [12]: 0%
- pest or weed control at 280.212 g/ha [13]: 80%
- pest or weed control at 280.212 g/ha [14]: 10%
- pest or weed control at 280.212 g/ha [15]: 35%
- pest or weed control at 280.212 g/ha [16]: 0%
- pest or weed control at 280.212 g/ha [17]: 30%
- pest or weed control at 280.212 g/ha [18]: 70%
- pest or weed control at 1000 g/ha ([19]; 1.0 Kg/Ha): 97%
- pest or weed control at 1000 g/ha ([20]; 1.0 Kg/Ha): 99%
- pest or weed control at 1000 g/ha ([21]; 1.0 Kg/Ha): 95%
- pest or weed control at 1000 g/ha ([22]; 1.0 Kg/Ha): 80%
- % NH4-N Remaining After 2 Weeks Incubation ([23]; 0.06 ppm): 23%
- % NH4-N Remaining After 2 Weeks Incubation ([23]; 0.1 ppm): 54%
- % NH4-N Remaining After 2 Weeks Incubation ([23]; 1 ppm): 87%
- % NH4-N Remaining After 2 Weeks Incubation ([23]; 10 ppm): 100%
